From patent publication US20140275277A1, “PHARMACEUTICAL COMPOSITION OF S-KETAMINE HYDROCHLORIDE” (JANSSEN PHARMACEUTICA NV, priority 2013, published 2014)

What was measured:
P. aeruginosa = test: Full AET Challenge Test (Example 2); type: cell-based, Pseudomonas aeruginosa; conditions: after 28 days; spike 10^5-10^6 CFU/ml
Description: (§1) The formulations listed in Table 3 were additionally subjected to a Full AET challenge, with results for the individual formulations are shown in Tables 5-8, below. Additionally, Table 9 below, provides results for a Full AET challenge of a reference formulation containing 0.00 mg/mL S-ketamine hydrochloride, denatonium benzoate (to mimic the taste of the S-ketamine HCl formulation(s)), and adjusted to pH 5.21 with 1N NaOH.

E. coli = test: Full AET Challenge Test (Example 2); type: cell-based, Escherichia coli; conditions: after 28 days; spike 10^5-10^6 CFU/ml
Description: as §1

[1] = test system: environmental isolate Staphylococcus haemolyticus; test: Microbial challenge test (Example 1); type: cell-based; conditions: spike 10^5-10^6 CFU/ml
Source text: A challenge test was initiated to investigate whether the formulation could prevent microorganisms from proliferating. The challenge test consisted of challenging the formulation with a prescribed inoculum of microorganisms. The inoculated formulation was then stored at room temperature and at specified time intervals a sample was withdrawn to count the microorganisms in the sample.

M. luteus = test: Full AET Challenge Test (Example 2); type: cell-based, Micrococcus Luteus; conditions: after 28 days; spike 10^5-10^6 CFU/ml
Description: as §1

S. aureus = test: Full AET Challenge Test (Example 2); type: cell-based, Staphylococcus aureus; conditions: after 28 days; spike 10^5-10^6 CFU/ml
Description: as §1

A. brasiliensis = test: Full AET Challenge Test (Example 2); type: cell-based, Aspergillus brasiliensis; conditions: after 28 days of incubation at room temperature; spike 10^5-10^6 CFU/ml
Description: as §1

C. albicans = test: Full AET Challenge Test (Example 2); type: cell-based, Candida albicans; conditions: after 28 days; spike 10^5-10^6 CFU/ml
Description: as §1

SMILES: CN[C@]1(c2ccccc2Cl)CCCCC1=O.Cl [S-ketamine hydrochloride, (S)-2-(2-chlorophenyl)-2-(methylamino)cyclohexanone hydrochloride]
- Effect on the original spike of Pseudomonas aeruginosa, in words (P. aeruginosa): strong antimicrobial properties
- Effect on the original spike of Escherichia coli, in words (E. coli): strong antimicrobial properties
- Effect on the original spike of Staphylococcus haemolyticus, in words [1]: strong antimicrobial properties
- Effect on the original spike of Micrococcus Luteus, in words (M. luteus): strong antimicrobial properties
- Effect on the original spike of Staphylococcus aureus, in words (S. aureus): strong antimicrobial properties
- Effect on the original spike of Aspergillus brasiliensis, in words (A. brasiliensis): some inhibitory activity
- Effect on the original spike of Candida albicans, in words (C. albicans): strong antimicrobial properties
